Measured values reported in patent US11384060B2, “Amide compounds and use thereof” (ALPHALA CO., LTD., priority 2017, dated 2022).
Read-outs that look alike come from different tables or passages of the source.

Columns and labels:
glucagon receptor (GCGR) = target: T1, glucagon receptor (GCGR) (Homo sapiens, UniProt P47871); assay: I125-glucagon binding assay (competition, GCGR membrane fractions)
T1 construct: expressed in transfected cells; host or cells: CHO-K1 cells overexpressing GCGR (membrane fractions)
T1 sequence (P47871 26-477): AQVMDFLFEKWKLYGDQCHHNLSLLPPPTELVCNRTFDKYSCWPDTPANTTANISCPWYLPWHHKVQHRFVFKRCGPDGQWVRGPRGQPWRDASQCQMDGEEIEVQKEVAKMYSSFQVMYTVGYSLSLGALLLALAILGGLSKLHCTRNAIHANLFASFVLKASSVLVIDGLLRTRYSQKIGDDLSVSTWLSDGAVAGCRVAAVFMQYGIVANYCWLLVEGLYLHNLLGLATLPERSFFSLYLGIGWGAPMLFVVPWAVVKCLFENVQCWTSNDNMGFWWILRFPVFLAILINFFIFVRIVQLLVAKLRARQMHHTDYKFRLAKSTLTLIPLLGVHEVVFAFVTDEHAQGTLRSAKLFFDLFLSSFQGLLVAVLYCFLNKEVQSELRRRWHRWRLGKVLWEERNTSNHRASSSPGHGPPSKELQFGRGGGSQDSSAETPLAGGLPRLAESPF
Outline: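 Competition of 0.0625 nM (final) I^125-glucagon for 30 min at 25° C, after 5 min compound preincubation, using 7.5 μg/well GCGR-overexpressing CHO-K1 membranes in 50 mM Tris pH 7.4, 0.5% BSA. Filtration onto PEI-coated GF/B, micro-beta counting, and non-linear regression gave IC50.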

[1] = target: T2, glucagon receptor (GCGR) overexpressed CHO-K1 cells or human primary hepatocytes (Homo sapiens, UniProt P47871); assay: Glucagon cAMP inhibition assay (Cisbio cAMP Dynamic 2 HTRF); assay type: cell-based
T2 construct: expressed in transfected cells; host or cells: GCGR overexpressed CHO-K1 cells or human primary hepatocytes (endogenous receptor)
T2 sequence (P47871 26-477): as above
Outline: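 HTRF read-out of glucagon-induced cAMP, with IC50 from non-linear regression. Cells (GCGR CHO-K1 or human primary hepatocytes) in HBSS/0.1% BSA/800 nM IBMX took compound dilutions for 30 min (final DMSO 1%), then EC50-level glucagon for 30 min at room temperature, then a 60 min lysis/detection step.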

[2] = competition with I125-glucagon 0.0625 nM, membrane fractions of GCGR overexpressed CHO-K1 cells
[3] = inhibition of glucagon (EC50 concentration) induced cAMP production

Structure (SMILES) | IC50 (glucagon receptor (GCGR); uM) | IC50 cAMP [1] | IC50 (glucagon receptor (GCGR); [2]) | IC50 cAMP [1, 3] | IC50 (glucagon receptor (GCGR))
CCOC(=O)CCNC(=O)c1ccc(N[C@@H](Cc2ccc3ccccc3c2)C(=O)Nc2ccc(C(C)(C)C)cc2)cc1 [Compound 23-19, Ethyl (S)-3-(4-((1-((4-(tert-butyl)phenyl)amino)-3-(naphthalen-2-yl)-1-oxopropan-2-yl)amino)benzamido)propanoate] | > 10 µM | 5400 nM |  |  | 
CC(C)C[C@@H](COc1cnc(-c2ccc(Cl)cc2Cl)nc1)Nc1ccc(C(=O)NCCC(=O)O)cc1 [Compound 12-11, (S)-3-(4-((1-((2-(2,4-dichlorophenyl)pyrimidin-5-yl)oxy)-4-methylpentan-2-yl)amino)benzamido)propanoic Acid] |  |  | 0.233 µM | 3585 nM | 
CCOC(=O)CCNC(=O)c1ccc(N[C@H](COc2ccc(-c3nnc(C(C)(C)C)o3)cn2)c2ccc(-c3ccc(C(F)(F)F)cc3F)cc2)cc1 [Compound 15-31, Ethyl (S)-3-(4-((2-((5-(5-(tert-butyl)-1,3,4-oxadiazol-2-yl)pyridin-2-yl)oxy)-1-(2′-fluoro-4′-(trifluoromethyl)-[1,1′-biphenyl]-4-yl)ethyl)amino)benzamido)propanoate] |  | >30000 nM |  |  | > 30 µM
CCCC[C@@H](Cc1ccc(-c2cc3ccccc3o2)cc1)Nc1ccc(C(=O)NCCC(=O)O)cc1 [Compound 19-11, (S)-3-(4-((1-(4-(benzofuran-2-yl)phenyl)hexan-2-yl)amino)benzamido)propanoic Acid] |  | 259.9 nM |  |  | 0.283 µM
CC(C)[C@@H](COc1ccc(-c2cc3ccccc3o2)cc1)N(C)c1ccc(C(=O)NCCC(=O)O)cc1 [Compound 6-1, (S)-3-(4-((1-(4-(benzofuran-2-yl)phenoxy)-3-methylbutan-2-yl)(methyl)amino)benzamido)propanoic Acid] |  |  | 0.391 µM | 204.2 nM | 
CC(C)[C@@H](COc1ccc(-c2ccc(C(F)(F)F)cc2F)nc1)Nc1ccc(C(=O)NCCC(=O)O)cc1 [Compound 10-3, (S)-3-(4-((1-((6-(2-fluoro-4-(trifluoromethyl)phenyl)pyridin-3-yl)oxy)-3-methylbutan-2-yl)amino)benzamido)propanoic Acid] |  |  | 0.511 µM | 1206 nM | 
CC[C@H](C)[C@@H](COc1ccc(-c2ccc(C(F)(F)F)cc2Cl)c(F)c1)Nc1ccc(C(=O)NCCC(=O)O)cc1 [Compound 8-8, 3-(4-(((2S,3S)-1-((2′-chloro-2-fluoro-4′-(trifluoromethyl)-[1,1′-biphenyl]-4-yl)oxy)-3-methylpentan-2-yl)amino)benzamido)propanoic Acid] |  |  | 0.277 µM | 500 nM | 
CC(C)C[C@@H](COc1ccc(-c2ccc(Cl)cc2Cl)nc1)Nc1ccc(C(=O)NCCC(=O)O)cc1 [Compound 10-19, (S)-3-(4-((1-((6-(2,4-dichlorophenyl)pyridin-3-yl)oxy)-4-methylpentan-2-yl)amino)benzamido)propanoic Acid] |  |  | 0.301 µM | 1064 nM | 
CC[C@H](C)[C@@H](CSc1ccc(-c2ccc(C(F)(F)F)cc2)cc1)Nc1ccc(C(=O)NCCC(=O)O)cc1 [Compound 5-2, 3-(4-(((2S,3S)-3-methyl-1-((4′-(trifluoromethyl)-[1,1′-biphenyl]-4-yl)thio)pentan-2-yl)amino)benzamido)propanoic Acid] |  |  | 1.19 µM | 2465 nM | 
CCCCC[C@@H](Cc1ccc(-c2ccc(OC(F)(F)F)cc2)cc1)Nc1ccc(C(=O)NCCC(=O)O)cc1 [Compound 19-9, (S)-3-(4-((1-(4′-(trifluoromethoxy)-[1,1′-biphenyl]-4-yl)heptan-2-yl)amino)benzamido)propanoic Acid] |  | 76.8 nM |  |  | 0.151 µM
CCCC[C@@H](COc1cc(C)c(-c2cc3ccccc3o2)c(C)c1)Nc1ccc(C(=O)NCCC(=O)O)cc1 [Compound 2-12, (S)-3-(4-((1-(4-(benzofuran-2-yl)-3,5-dimethylphenoxy)hexan-2-yl)amino)benzamido)propanoic Acid] |  |  | 0.108 µM | 62.8 nM | 
CC(C)COC[C@@H](Cc1ccc(-c2cc3ccccc3o2)cc1)Nc1ccc(C(=O)NCCC(=O)O)cc1 [Compound 19-21, (R)-3-(4-((1-(4-(benzofuran-2-yl)phenyl)-3-isobutoxypropan-2-yl)amino)benzamido)propanoic Acid] |  | 437.3 nM |  |  | 0.269 µM
O=C(O)CCNC(=O)c1ccc(N[C@H](COc2ccc(C(F)(F)F)cn2)c2ccc(-c3ccc(C(F)(F)F)cc3)cc2)cc1 [Compound 15-27, (S)-3-(4-((1-(4′-(trifluoromethyl)-[1,1′-biphenyl]-4-yl)-2-((5-(trifluoromethyl)pyridin-2-yl)oxy)ethyl)amino)benzamido)propanoic Acid] |  | 316 nM |  |  | 0.101 µM
CC(C)[C@H](COc1ccc(-c2nc3ccccc3o2)cc1)Nc1ccc(C(=O)NCCC(=O)O)cc1 [Compound 1-54, (R)-3-(4-((1-(4-(benzo[d]oxazol-2-yl)phenoxy)-3-methylbutan-2-yl)amino)benzamido)propanoic Acid] |  |  | 0.095 µM | 213 nM | 
CC(C)[C@@H](COc1ccc(-c2ccc(C(F)(F)F)cc2Cl)nc1)Nc1ccc(C(=O)NCCC(=O)O)cc1 [Compound 10-2] |  |  | 0.255 µM | 1805 nM | 
CC(C)(C)c1nnc(-c2ccc(OC[C@@H](Nc3ccc(C(=O)NCCC(=O)O)cc3)c3ccc(-c4ccc(C(F)(F)F)cc4)cc3)nc2)o1 [Compound 15-30, (S)-3-(4-((2-((5-(5-(tert-butyl)-1,3,4-oxadiazol-2-yl)pyridin-2-yl)oxy)-1-(4′-(trifluoromethyl)-[1,1′-biphenyl]-4-yl)ethyl)amino)benzamido)propanoic Acid] |  | 18257 nM |  |  | 2 µM
CC(C)[C@@H](COc1ccc(-c2ccc(C(F)(F)F)cc2Cl)cn1)Nc1ccc(C(=O)NCCC(=O)O)cc1 [Compound 15-9, (S)-3-(4-((1-((5-(2-chloro-4-(trifluoromethyl)phenyl)pyridin-2-yl)oxy)-3-methylbutan-2-yl)amino)benzamido)propanoic Acid] |  | 81.5 nM |  |  | 0.33 µM
CC(C)(C)c1ccc(-c2ccc(OC[C@@H](Nc3ccc(C(=O)NCCC(=O)O)cc3)c3ccccc3)nc2)cc1 [Compound 15-4] |  | 3241 nM |  |  | 0.626 µM
CC(C)[C@@H](COc1cnc(-c2cc3ccccc3o2)nc1)Nc1ccc(C(=O)NCCC(=O)O)cc1 [Compound 12-2, (S)-3-(4-((1-((2-(benzofuran-2-yl)pyrimidin-5-yl)oxy)-3-methylbutan-2-yl)amino)benzamido)propanoic Acid] |  |  | 0.266 µM | 6849 nM | 
CCCC[C@@H](COc1ccc(-c2ccc(C(F)(F)F)cc2)c(Cl)c1)Nc1ccc(C(=O)NCCC(=O)O)cc1 [Compound 3-16, (S)-3-(4-((1-((2-chloro-4′-(trifluoromethyl)-[1,1′-biphenyl]-4-yl)oxy)hexan-2-yl)amino)benzamido)propanoic Acid] |  |  | 0.051 µM | 367.7 nM | 
CCCC[C@@H](COc1ccc(-c2nnc(-c3ccccc3)o2)cc1)Nc1ccc(C(=O)NCCC(=O)O)cc1 [Compound 1-50, (S)-3-(4-((1-(4-(5-phenyl-1,3,4-oxadiazol-2-yl)phenoxy)hexan-2-yl)amino)benzamido)propanoic Acid] |  |  | 0.715 µM | 1622 nM | 
CC[C@H](C)[C@@H](COc1ccc(-c2ccc(OC)cc2Cl)cc1)Nc1ccc(C(=O)NCCC(=O)O)cc1 [Compound 1-38, 3-(4-(((2S,3S)-1-((2′-chloro-4′-methoxy-[1,1′-biphenyl]-4-yl)oxy)-3-methylpentan-2-yl)amino)benzamido)propanoic Acid] |  |  | 0.172 µM | 203 nM | 
CC(C)CC[C@@H](Cc1ccc(-c2ccc(C(F)(F)F)cc2)cc1)Nc1ccc(C(=O)NCCC(=O)O)cc1 [Compound 19-10, (S)-3-(4-((5-methyl-1-(4′-(trifluoromethyl)-[1,1′-biphenyl]-4-yl)hexan-2-yl)amino)benzamido)propanoic Acid] |  | 373 nM |  |  | 0.195 µM
CC(C)C[C@@H](COc1cc(F)c(-c2ccc(C(F)(F)F)cc2Cl)c(F)c1)Nc1ccc(C(=O)NCCC(=O)O)cc1 [Compound 7-5, (S)-3-(4-((1-((2′-chloro-2,6-difluoro-4′-(trifluoromethyl)-[1,1-biphenyl]-4-yl)oxy)-4-methylpentan-2-yl)amino)benzamido)propanoic Acid] |  |  | 0.075 µM | 811 nM | 
CC(C)[C@@H](COc1ccc(-c2nc3ccccc3s2)c(F)c1)Nc1ccc(C(=O)NCCC(=O)O)cn1 [Compound 9-5, (S)-3-(6-((1-(4-(benzo[d]thiazol-2-yl)-3-fluorophenoxy)-3-methylbutan-2-yl)amino)nicotinamido)propanoic Acid] |  |  | 0.606 µM | 2408 nM | 
CC(C)[C@@H](COc1ccc(-c2cc3ccccc3o2)c(F)c1)Nc1ccc(C(=O)NCCS(=O)(=O)O)cc1 [Compound 8-4, (S)-2-(4-((1-(4-(benzofuran-2-yl)-3-fluorophenoxy)-3-methylbutan-2-yl)amino)benzamido)ethane-1-sulfonic Acid] |  |  | 1.72 µM | 10292 nM | 
CCCC[C@@H](COc1cc(C)c(-c2cc3ccccc3o2)c(C)c1)Nc1ccc(C(=O)NCc2nnn[nH]2)cc1 [Compound 2-13, (S)—N-((1H-tetrazol-5-yl)methyl)-4-((1-(4-(benzofuran-2-yl)-3,5-dimethylphenoxy)hexan-2-yl)amino)benzamide] |  |  | 0.167 µM | 148.5 nM | 
